Test results published in US20240103006A1 (Roche Diagnostics Operations, Inc., priority 2021, published 2024).
Converted amounts (≈) assume the structure as drawn. “And” between values parts separate entries of the source, which are not always exact repeats. Equal entries are not always repeated. Marks after values point to notes of the source that are not given here.

Experiments:
[1] = UV-vis spectral properties / extinction coefficients in aqueous buffer; assay type: physicochemical; settings: probe before addition of Cys
Procedure: Absorption spectra were recorded on a Cary 50 UV-vis spectrometer from Varian. All measurements were performed in 1 cm UV-vis disposable cuvettes (BRAND semi-micro) and air-equilibrated solutions at 25±0.1° C. A total assay volume of 1.0 mL was used for each measurement. UV-vis scan spectra were recorded using following parameters: average time 0.05 s; data interval 1 nm; scan rate 1200 nm/min; with base line correction.
(§1) Stock solutions of assayed compounds (2-5 mM) were prepared in H2O-DMSO (1:1), stored at −20° C., and diluted to 1.0 mM with buffer before use. The L-Cys stock solution (20.0 mM) was freshly prepared in buffer before the measurements. […]
For a measurement, 1000 μL of buffer and 1-50 μL of probe (1.0 mM) were mixed, and then transferred to a cuvette. Absorbance spectra (250-800 nm) were measured against a blank of the buffer. At least six concentrations of each compound were used to calculate extinction coefficients from the slope of probe concentration vs absorbance plots, using MS Excel software (Microsoft).

[2] = Evaluation of stability (hydrolysis of probe in buffer, UV-vis); assay type: physicochemical; settings: 25 mM HEPES pH 7.4, 15.6 μM, 5 h, ε from merocyanine analogues (LZ07: ε from Table 2)
Procedure: For a measurement, 1000 μL of buffer and 16 μL of probe (1.0 mM) were mixed, and then incubated at +4° C. and at +37° C. for 5 h. The resulting mixtures were transferred to a cuvette, and the absorbance (250-800 nm) was measured. Each measurement was done in triplicate.
[…] Solutions of each probe were monitored by UV-vis for 5 h.

[3] = Cys-response screening by UV-vis (cleavage of acryloyl ester by excess Cys); settings: for ε^Cys / λ^Cys: after excess Cys (100 μM), 37° C., 15 min; for SNR: from ε^Cys and ε^blank
Procedure: as §1
In the same manner, ε^Cys was determined from the solutions of probe reacted with an excess of Cys (100 μM). The reactions were performed at 37° C. (incubation time 15 min). Blank reactions were run without addition of Cys.
Spectra recorded in the presence of Cys confirmed a colorimetric response through the cleavage of acryloyl ester. […] Moreover, their spectral profiles were advantageously fulfilling the wavelength requirement for the Cys sensing application in Cedex system (340, 378, 409, 480, 512, 520, 552, 583, 629, 652, 659 and 800 nm).

[4] = Evaluation of solubility in water; assay type: physicochemical; settings: for Solubility (by weight) / Solubility (by UV-vis): H2O at RT; for Solubility (by weight): calculated from isolated pellet weight; for Solubility (by UV-vis): supernatant read in 25 mM HEPES pH 7.4
Procedure: In the experiments, 5-10 mg of dried material was suspended in 250-500 μL of H2O at RT. The resulting suspension was centrifuged for 10 min at RT (16000 rcf). UV-vis of supernatant were recorded in buffer (25 mM HEPES pH 7.4) at RT. Each measurement was done in triplicate. The pellet was dried in vacuo for 16 h, and then weighed.
The aqueous solubility of probes is another important property for the performance of compounds in biological assays. The inventors determined the solubility in water of the probes according to the invention using UV-vis. First, oversaturated mixtures of each probe were prepared. The mixtures were centrifuged, and then the concentrations in probes of supernatant were examined by UV-vis. To further validate the results, the concentrations were calculated from the isolated pellet weight.

[5] = Probe performance in Cedex Bio HT: Cys sensing in a feed medium
Procedure: The rapid kinetic profile, stability and low background signal as obtained were encouraging to further use MF70 for Cys-sensing in Cedex Bio HT. Reagent solution was treated with various Cys-concentrations (0.5-7.6 mM) in a feed medium, which is used for monoclonal antibody production. […] Under these conditions, a reliable response was obtained over the period of one week (Table 5), with corresponding detection limit of 3.6 μM Cys, and limit of blank 2.2 μM Cys.

[6] = solvent as listed per probe; cited from earlier work

SMILES	ε of long-wavelength band of probe ([1]; 25 mM HEPES pH 7.4)	ε of short-wavelength band(s) of probe ([1]; 25 mM HEPES pH 7.4)	λmax, long-wavelength band of probe ([1]; 25 mM HEPES pH 7.4)	λmax, short-wavelength band(s) of probe ([1]; 25 mM HEPES pH 7.4)	Hydrolysis @4° C. [2]	Hydrolysis @37° C. [2]	ε^Cys ([3]; 25 mM HEPES pH 7.4)	λ^Cys ([3]; 25 mM HEPES pH 7.4)	SNR ([3]; 25 mM HEPES pH 7.4)	also measured
C=CC(=O)Oc1ccc(/C=C/C2=[N+](C)c3ccccc3C2(C)C)cc1 [LZ07, reference compound]	0.6 mM⁻¹ cm⁻¹	16.9 mM⁻¹ cm⁻¹	520 nm	383 nm	7.3 ± 0.1 %	30.1 ± 0.2 %	31.5 mM⁻¹ cm⁻¹	520 nm	16	Solubility (by weight) [4]: 17 mM; Solubility (by UV-vis) [4]: 15.4 ± 1.5 mM
C=CC(=O)Oc1ccc2cc(/C=C/C3=[N+](C)c4ccccc4C3(C)C)ccc2c1	–	–	–	–	–	–	–	–	–	Spectra: Probe [6]: 409 nm; Spectra: With Cys [6]: 448 nm
C=CC(=O)Oc1ccc(/C=C/c2cc[n+](C)cc2)cc1	–	–	–	–	–	–	–	–	–	Spectra: Probe [6]: 335 nm; Spectra: With Cys [6]: 372 nm
C=CC(=O)Oc1ccc2c(c1)OC1=C(/C=C/C3=[N+](C)c4ccccc4C3(C)C)CCCC1=C2	–	–	–	–	–	–	–	–	–	Spectra: Probe [6]: 582 nm; Spectra: With Cys [6]: 674 nm
C=CC(=O)Oc1ccc2cc(/C=C/C3=[N+](C)c4c(ccc5ccccc45)C3(C)C)ccc2c1	–	–	–	–	–	–	–	–	–	Spectra: With Cys [6]: With Cys 460 nm
C=CC(=O)Oc1ccc(/C=C/C2=[N+](CCCCS(=O)(=O)[O-])c3ccccc3C2(C)C)cc1 [LZ05, reference compound]	1.3 mM⁻¹ cm⁻¹	17.3 mM⁻¹ cm⁻¹	527 nm	389 nm	8.4 ± 0.2%	36.9 ± 0.4%	31.9 mM⁻¹ cm⁻¹	527 nm	12	Solubility (by weight) [4]: 12 mM (≈ 5440 µg/mL); Solubility (by UV-vis) [4]: 11.0 ± 1.0 mM (≈ 4990 µg/mL)

Second part, led by results:

ε of long-wavelength band of probe ([1]; 25 mM HEPES pH 7.4)	ε of short-wavelength band(s) of probe ([1]; 25 mM HEPES pH 7.4)	λmax, long-wavelength band of probe ([1]; 25 mM HEPES pH 7.4)	λmax, short-wavelength band(s) of probe ([1]; 25 mM HEPES pH 7.4)	Hydrolysis @4° C. [2]	Hydrolysis @37° C. [2]	SMILES	ε^Cys ([3]; 25 mM HEPES pH 7.4)	λ^Cys ([3]; 25 mM HEPES pH 7.4)	SNR ([3]; 25 mM HEPES pH 7.4)	also measured
0.7 mM⁻¹ cm⁻¹	8.0 mM⁻¹ cm⁻¹	514 nm	350 nm	8.9 ± 0.2%	45.2 ± 1.4%	C=CC(=O)Oc1ccc(/C=C/C2=[N+](CCCCS(=O)(=O)O)c3ccccc3C2(C)C)c(S(=O)(=O)[O-])c1 [MF64]	32.1 mM⁻¹ cm⁻¹	514 nm	14	–
1.2 mM⁻¹ cm⁻¹	17.7 mM⁻¹ cm⁻¹	528 nm	381 nm	7.2 ± 0.2%	28.9 ± 1.4%	C=CC(=O)Oc1ccc(/C=C/C2=[N+](CCCCS(=O)(=O)O)c3ccccc3C2(C)C)cc1S(=O)(=O)[O-] [MF65]	44.3 mM⁻¹ cm⁻¹	528 nm	16	–
2.1 mM⁻¹ cm⁻¹	14.3 mM⁻¹ cm⁻¹	530 nm	409 nm	9.8 ± 0.3%	41.8 ± 0.9%	C=CC(=O)Oc1ccc(/C=C/C2=[N+](CCCCS(=O)(=O)[O-])c3ccccc3C2(C)C)c(OC)c1 [MF60]	67.8 mM⁻¹ cm⁻¹	529 nm	14	–
2.9 mM⁻¹ cm⁻¹	14.0 mM⁻¹ cm⁻¹	572 nm	397 nm	9.8 ± 1.5%	55.3 ± 0.7%	C=CC(=O)Oc1ccc(/C=C/C2=[N+](CCCCS(=O)(=O)[O-])c3ccccc3C2(C)C)c2cccnc12 [MF63]	93.4 mM⁻¹ cm⁻¹	572 nm	10	–
1.5 mM⁻¹ cm⁻¹	8.5 mM⁻¹ cm⁻¹ and 7.7 mM⁻¹ cm⁻¹	582 nm	419 nm and 287 nm	7.6 ± 0.5%	40.4 ± 0.6%	C=CC(=O)Oc1ccc(/C=C/C2=[N+](CCCCS(=O)(=O)[O-])c3ccccc3C2(C)C)c2ccccc12 [MF62]	105.3 mM⁻¹ cm⁻¹	582 nm	20	–
–	14.2 mM⁻¹ cm⁻¹	–	396 nm	0.8 ± 0.1%	2.8 ± 0.1%	C=CC(=O)Oc1c(OC)cc(/C=C/C2=[N+](CCCCS(=O)(=O)[O-])c3ccccc3C2(C)C)cc1OC [MF72]	31.0 mM⁻¹ cm⁻¹	575 nm	103	–
–	21.9 mM⁻¹ cm⁻¹	–	400 nm	0.2 ± 0.0%	0.8 ± 0.0%	C=CC(=O)Oc1c(C)cc(/C=C/C2=[N+](CCCS(=O)(=O)O)c3ccc(S(=O)(=O)[O-])cc3C2(C)C)cc1C [MF70]	23.6 mM⁻¹ cm⁻¹	556 nm	118	ε of short-wavelength band of probe ([1]; same buffer at pH 8.0): 16.6 mM⁻¹ cm⁻¹; λmax, short-wavelength band of probe ([1]; same buffer at pH 8.0): 400 nm; detection limit [5]: 3.6 μM Cys; limit of blank [5]: 2.2 μM Cys; Solubility (by weight) [4]: ≥47 mM; Solubility (by UV-vis) [4]: ≥41 mM; aqueous solubility (in words) ([4]; in comparison to LZ05 and MF59): highly water-soluble; ε^Cys ([3]; same buffer at pH 8.0): 55.8 mM⁻¹ cm⁻¹; λ^Cys ([3]; same buffer at pH 8.0): 556 nm; SNR ([3]; same buffer at pH 8.0): 140**
0.7 mM⁻¹ cm⁻¹	16.7 mM⁻¹ cm⁻¹	550 nm	391 nm	1.2 ± 0.0%	4.7 ± 0.1%	C=CC(=O)Oc1c(C)cc(/C=C/C2=[N+](CCCCS(=O)(=O)[O-])c3ccccc3C2(C)C)cc1C [MF59]	17.9 mM⁻¹ cm⁻¹	550 nm	20	Solubility (by weight) [4]: 2 mM (≈ 963 µg/mL); Solubility (by UV-vis) [4]: 5.8 ± 0.2 mM (≈ 2790 µg/mL); ε^Cys ([3]; same buffer at pH 8.0): 52.9 mM⁻¹ cm⁻¹; λ^Cys ([3]; same buffer at pH 8.0): 550 nm; SNR ([3]; same buffer at pH 8.0): 44**
0.4 mM⁻¹ cm⁻¹	20.4 mM⁻¹ cm⁻¹	548 nm	397 nm	4.8 ± 0.1%	29.1 ± 1.9%	C=CC(=O)Oc1ccc(/C=C/C2=[N+](CCCCS(=O)(=O)[O-])c3ccccc3C2(C)C)cc1OC [MF61]	61.7 mM⁻¹ cm⁻¹	549 nm	36	–
0.6 mM⁻¹ cm⁻¹	29.1 mM⁻¹ cm⁻¹	546 nm	387 nm	1.0 ± 0.1%	2.3 ± 0.2%	C=CC(=O)Oc1c(C)cc(/C=C/C2=[N+](C)c3ccccc3C2(C)C)cc1C [MF71]	33.7 mM⁻¹ cm⁻¹	547 nm	48	ε of long-wavelength band of probe ([1]; same buffer at pH 8.0): 0.8 mM⁻¹ cm⁻¹; ε of short-wavelength band of probe ([1]; same buffer at pH 8.0): 25.7 mM⁻¹ cm⁻¹; λmax, long-wavelength band of probe ([1]; same buffer at pH 8.0): 546 nm; λmax, short-wavelength band of probe ([1]; same buffer at pH 8.0): 385 nm; ε^Cys ([3]; same buffer at pH 8.0): 69.6 mM⁻¹ cm⁻¹; λ^Cys ([3]; same buffer at pH 8.0): 547 nm; SNR ([3]; same buffer at pH 8.0): 53**
